Assay results as given in US20200000840A1, “USE OF CYCLODEXTRINS TO REDUCE ENDOCYTOSIS IN MALIGNANT AND NEURODEGENERATIVE DISORDERS” (priority 2016, published 2020).
“And” between values parts separate entries of the source, which are not always exact repeats. Equal values may be shown once. “Also recorded” adds a separate entry of the source. Read-outs that look alike come from different tables or passages of the source. Marks after values point to notes of the source that are not given here.

Legend:
erythrocytes = settings: cited from earlier work
human erythrocytes = settings: cited from earlier work
[1] = parenteral administration; cited from earlier work
[2] = cyclosporine eye-drops; cited from earlier work
transferrin endocytosis = settings: 10 mM; cited from earlier work
[3] = cited from earlier work
human keratinocytes = settings: cited from earlier work
animal studies = settings: cited from earlier work
rats [4] = settings: 1.000 g/kg daily; cited from earlier work
[5] = parenteral delivery; cited from earlier work
BBB = settings: cited from earlier work; for Transport across BBB: 2 h
[6] = cited from earlier work; remark: listed apart in the source
rats [7] = settings: cited from earlier work
rats [8] = settings: rat, in vivo, cited from earlier work
rats [9] = settings: cited from earlier work; remark: listed apart in the source
[10] = Table 2; cited from earlier work
leukemia mouse models = settings: cited from earlier work
mice, cats, one human = settings: cats, and one human; cited from earlier work
rats [11] = settings: long-term parenteral administration, 200 mg/kg; cited from earlier work
children with NPC = settings: cited from earlier work
[12] = tested on: transgenic mouse model of AD; settings: cited from earlier work
renal cancer cells = settings: triple combination treatment, mice implanted with renal cancer cells; cited from earlier work
cats = settings: doses of 4-8 g/kg; cited from earlier work
[13] = tested on: MDA-MB 231 and MCF-7 human breast epithelial cell lines; experiment: Wound healing assay, overall statements for both cell lines; format: cell-based; settings: 1-4 mM
Method: (§1) Published results have shown that β-CD inhibits human MDA-MB 231 cell migration (Guerra et al. 2016). This inhibition was attributed to the ability of β-CD to “deplete cholesterol”. β-CD, however, depletes also phospholipids. […] Cells were cultured in 24-well culture plates (Cytoselect CBA-120, 0.9 mm wound healing/gap closure migration assay) for 24 hours with wound healing insert in place. […] Protocol: Warm up the 24-well plate (CBA-120, Cell BioLabs Inc.) with 0.9 mm CytoSelect Wound Healing Inserts at room temperature for 10 minutes. Using sterile forceps, orient the desired number of inserts in the plate wells with their “wound field” aligned in the same direction. Create a cell suspension containing 0.5-1.0×10^6 cells/ml in media containing 10% fetal bovine serum (FBS). Add 500 μL of cell suspension to each well by carefully inserting the pipette tip through the open end at the top of the insert. For optimal cell dispersion, add 250 μL of cell suspension to either side of the open ends at the top of the insert. Incubate cells in a cell culture incubator for 12-24 hours. Carefully remove the insert from the well to begin the wound healing assay. Use sterile forceps to grab and lift the insert slowly from the plate well. Slowly aspirate and discard the media from the wells. Wash wells with media to remove dead cells and debris. Finally, add media to wells to keep cells hydrated. Repeat wash if wells still have debris or unattached cells. When washing is complete, add media with FBS and/or compounds to continue cell culture and wound healing process. Agents that inhibit or stimulate cell migration can be added directly to the wells. Incubate cells in a cell culture incubator (2 hours) and then wash cells with PBS and then add fresh media without compounds. Incubate 12-24 hours before wash and fixing. Remove the fixation solution and add 400 μL of Cell Stain Solution to each well. Allow the stain to incubate with the cells for 15 minutes at room temperature. Aspirate and discard the solution. Carefully wash each stained well 3× with deionized water. Discard washes and allow cells to dry at room temperature. Cells that migrated into the wounded area or protruded from the border of the wound were visualized and photographed under an inverted microscope. Determine the surface area of the defined wound area: Total Surface Area=0.9 mm x length. Determine the surface area of the migrated cells into the wound area: Migrated Cell Surface Area=length of cell migration (mm)×2 x length. Percent Closure (%)=Migrated Cell Surface Area/Total Surface Area x 100.

rats [14] = settings: rat, in vivo; cited from earlier work
MCF-7 cells = experiment: Wound healing / gap closure migration assay (CytoSelect CBA-120); format: cell-based, human; settings: treated 2 hours
Method: as §1

MDA-MB-231 cells = experiment: as above; format: cell-based, human; settings: treated 2 hours
Method: as §1

[15] = in vivo; cited from earlier work

OC[C@H]1O[C@@H]2O[C@H]3[C@H](O)[C@@H](O)[C@@H](O[C@H]4[C@H](O)[C@@H](O)[C@@H](O[C@H]5[C@H](O)[C@@H](O)[C@@H](O[C@H]6[C@H](O)[C@@H](O)[C@@H](O[C@H]7[C@H](O)[C@@H](O)[C@@H](O[C@H]1[C@H](O)[C@H]2O)O[C@@H]7CO)O[C@@H]6CO)O[C@@H]5CO)O[C@@H]4CO)O[C@@H]3CO [α-cyclodextrin, alpha-cyclodextrin]
phospholipids released (erythrocytes; 10 mM): 30% | release of phospholipids on increasing concentration (erythrocytes; above 10 mM): does not increase release of phospholipids | cholesterol extraction (erythrocytes): negligible even at hemolytic concentrations | tolerance by human erythrocytes (human erythrocytes): better then β-CD | hemolytic activity (human erythrocytes; human erythrocytes, listed as α-CD): β-CD>α-CD>γ-CD; also recorded: lower than that of both β-CD and HP-β-CD | renal toxicity [1]: showed renal toxicity | tolerability in eye-drops [2]: well tolerated | reduction of transferrin endocytosis (transferrin endocytosis): 20% | i.v. toxicity, 1 g daily [3]: 1 died after 2 d | apoptotic cell death (human keratinocytes): not apoptotic | ototoxicity (animal studies): did not show ototoxicity | nephrosis, 1, 2, 3, 4, or 7 daily doses s.c. (rats [4]): 1.000 severe nephrosis | excretion [5]: excreted almost completely in an intact form into the urine | Transport across BBB (BBB; 0.5 mM): 21.5% | Transport across BBB (BBB; 1 mM): 16.5% | BBB breakdown (BBB): 1 mM | toxicity in the BBB model, comparison of CDs (BBB): most toxic among the three native CDs | oral absorption in rats [6]: 2-3% | nephrosis, single dose s.c. (rats [7]; 0.100 g/kg): 0.100 no changes | nephrosis, single dose s.c. (rats [7]; 1.000 g/kg): 1.000 changes seen | single dose i.v. LD50 (rats [8]; iv): 0.788/1.008 * g/kg | LD50 (rats [8]): 1008 mg/kg | acute i.v. toxicity in rats (rats [9]): 0.5 to 0.8 g/kg | Solubility in water [10]: 130 to 145 g/L

CC(O)COC[C@H]1O[C@@H]2O[C@H]3[C@H](O)[C@@H](O)[C@@H](O[C@H]4[C@H](O)[C@@H](O)[C@@H](O[C@H]5[C@H](O)[C@@H](O)[C@@H](O[C@H]6[C@H](O)[C@@H](O)[C@@H](O[C@H]7[C@H](O)[C@@H](O)[C@@H](O[C@H]8[C@H](O)[C@@H](O)[C@@H](O[C@H]1[C@H](O)[C@H]2O)O[C@@H]8COCC(C)O)O[C@@H]7COCC(C)O)O[C@@H]6COCC(C)O)O[C@@H]5COCC(C)O)O[C@@H]4COCC(C)O)O[C@@H]3COCC(C)O (stereo partly drawn) [HPbCD, hydroxypropyl-beta-cyclodextrin]
survival (leukemia mouse models): prolonged survival | hearing loss (mice, cats, one human): risk of causing permanent hearing loss | apoptotic cell death (human keratinocytes): not apoptotic | bone mineral density (BMD) (rats [11]): decrease bone mineral density | side effects (children with NPC; about 2500 mg/kg bi-weekly, over a year, two children with NPC): no discernable side effects | tolerability (children with NPC; children with NPC, doses of up to 1000 mg/kg/d): well tolerated | hearing (children with NPC; steady state IV doses of 2.5 g/kg bi-weekly for >1 yr): Hearing unaffected despite receiving steady state IV doses of | BBB breakdown (BBB): 2.5 mM | neuroprotection [12]: neuroprotective effects | oral absorption in rats [6]: ≤3% | tumor regression (renal cancer cells): necessary in triple combination treatment for tumor regression | hearing loss (cats): permanent hearing loss | migration versus concentration [13]: migration decreased with higher concentration | toxic effects at 1 g/kg (rats [14]): did not cause adverse clinical signs | average wound closure (MCF-7 cells; 1 mM): 73.33% | wound closure (Percent Closure), replications r1-r3 (MCF-7 cells; 1 mM): 68.00% and 74.00% and 78.00% | average wound closure (MCF-7 cells; 2 mM): 48.33% | wound closure (Percent Closure), replications r1-r3 (MCF-7 cells; 2 mM): 41.00% and 48.00% and 56.00% | average wound closure (MCF-7 cells; 4 mM): 33.67% | wound closure (Percent Closure), replications r1-r3 (MCF-7 cells; 4 mM): 32.00% and 28.00% and 41.00% | average wound closure (MDA-MB-231 cells; 1 mM): 67.67% | wound closure (Percent Closure), replications r1-r3 (MDA-MB-231 cells; 1 mM): 62.00% and 68.00% and 73.00% | average wound closure (MDA-MB-231 cells; 2 mM): 56.00% | wound closure (Percent Closure), replications r1-r3 (MDA-MB-231 cells; 2 mM): 48.00% and 59.00% and 61.00% | average wound closure (MDA-MB-231 cells; 4 mM): 39.00% | wound closure (Percent Closure), replications r1-r3 (MDA-MB-231 cells; 4 mM): 48.00% and 44.00% and 25.00% | Vol. of distribution (VD) [15]: 0.2 L/kg | half-life (t1/2) [15]: 1.7 to 1.9 h | acute i.v. toxicity in rats (rats [9]): 10 g/kg | Solubility in water [10]: >600 g/L
